According to the NIST ThermoML archive (doi:10.1021/acs.jced.6b00640):

Test: refractive index (Na D-line) (dimensionless); xn = mol fraction of the nth substance listed
Conditions: 100 kPa, Liquid, Standard Abbe refractometry

CCOC(=O)CCC(=O)OCC [diethyl butanedioate] + CCCC(=O)OCC
refractive index
Conditions	x2 = 0.0999	x2 = 0.2	x2 = 0.3003	x2 = 0.3999	x2 = 0.5	x2 = 0.5997	x2 = 0.7	x2 = 0.7999	x2 = 0.8999
288.15 K	1.4198	1.4177	1.4154	1.413	1.4104	1.4076	1.4048	1.4016	1.3986
293.15 K	1.4176	1.4155	1.4132	1.4107	1.4081	1.4053	1.4024	1.3992	1.3961
298.15 K	1.4154	1.4132	1.4109	1.4084	1.4058	1.403	1.4	1.3968	1.3937
303.15 K	1.4132	1.411	1.4086	1.4061	1.4035	1.4006	1.3976	1.3944	1.3912
308.15 K	1.411	1.4088	1.4063	1.4038	1.4011	1.3982	1.3952	1.392	1.3888
313.15 K	1.4088	1.4065	1.4041	1.4015	1.3988	1.3959	1.3928	1.3895	1.3862
318.15 K	1.4066	1.4043	1.4018	1.3992	1.3964	1.3935	1.3904	1.387	1.3837
323.15 K	1.4044	1.402	1.3995	1.3968	1.394	1.391	1.3878	1.3844	1.3809
